What was measured:
PAI-1 = PAI-1 activity assay in ex vivo plasma with and without vitronectin; type: biochemical; conditions: plasma of PAI-1 null or PAI-1/vitronectin null mice, 20 nM PAI-1
active murine PAI-1 = active murine PAI-1 (Mus musculus (Mouse), UniProt P22777); assay: In vivo efficacy in transgenic mice that overexpress PAI-1, active PAI-1 in plasma; conditions: 3, 10, 30 mg/kg into the IVC, 1 hour
active murine PAI-1, sequence (P22777 23-402): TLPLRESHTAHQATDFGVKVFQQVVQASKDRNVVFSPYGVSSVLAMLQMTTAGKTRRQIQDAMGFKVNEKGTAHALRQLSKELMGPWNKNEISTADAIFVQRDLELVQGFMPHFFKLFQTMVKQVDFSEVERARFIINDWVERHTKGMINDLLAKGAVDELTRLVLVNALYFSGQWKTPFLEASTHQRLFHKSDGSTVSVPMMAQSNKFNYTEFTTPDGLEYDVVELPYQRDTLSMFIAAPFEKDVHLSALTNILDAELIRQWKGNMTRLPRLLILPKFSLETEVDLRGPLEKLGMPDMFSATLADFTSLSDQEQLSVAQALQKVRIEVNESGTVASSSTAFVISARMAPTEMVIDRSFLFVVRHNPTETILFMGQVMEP

With `O=C(OC[C@H]1OC(OC(=O)c2cc(O)c(O)c(O)c2)[C@H](OC(=O)c2cc(O)c(O)c(O)c2)[C@@H](OC(=O)c2cc(O)c(O)c(O)c2)[C@H]1OC(=O)c1cc(O)c(O)c(O)c1)c1cc(O)c(O)c(O)c1` (some centres unmarked) [CDE-066] the “PAI-1 inhibition in plasma with or without vitronectin (in words)” value (PAI-1) was “inhibited PAI-1 equally well in plasma with or with out physiologic vitronectin” and the “active PAI-1 in plasma after treatment (in words)” value (active murine PAI-1) was “dose-dependent decrease in active PAI-1”.

Source: patent US9120744B2, “Plasminogen activator inhibitor-1 inhibitors and methods of use thereof to modulate lipid metabolism” (THE REGENTS OF THE UNIVERSITY OF MICHIGAN, priority 2007, dated 2015)
